Measured values: US11135223B2, “Compositions and methods for inhibiting Dkk-1” (YALE UNIVERSITY, priority 2016, dated 2021)

Target: T1, Dkk-1 (Mus musculus, UniProt O54908)
T1 construct: the primary circulating source of Dkk-1 in during both homeostatic and allergen-challenged conditions is platelets; from tissue; host or cells: living C57BL/6 mice; circulating Dkk-1 released from platelets
T1 sequence (O54908 32-272): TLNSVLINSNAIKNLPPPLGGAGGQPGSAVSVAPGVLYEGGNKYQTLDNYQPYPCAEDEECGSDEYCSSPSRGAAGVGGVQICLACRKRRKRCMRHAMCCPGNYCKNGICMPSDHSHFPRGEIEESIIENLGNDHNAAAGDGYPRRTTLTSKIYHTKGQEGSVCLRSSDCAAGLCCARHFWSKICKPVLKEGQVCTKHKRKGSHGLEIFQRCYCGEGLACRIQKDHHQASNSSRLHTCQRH
Assay: House dust mite (HDM)-induced asthma model
Type: in vivo, mice
Description: FIG. 1, comprising FIG. 1A through FIG. 1F, depicts results of experiments showing the characterization of Dkk-1^d/d mice. FIG. 1A depicts flow cytometry analysis of single cell suspensions from spleen of six to ten week-old Dkk-1^d/d mice (n=5) and their wildtype littermate controls (n=3). FIG. 1B depicts flow cytometry analysis of single cell suspensions from bone marrow of six to ten week-old Dkk-1^d/d mice (n=5) and their wildtype littermate controls (n=3). FIG. 1C depicts ELISA analysis of splenic CD4 T cells isolated by MACS and stimulated with anti-CD3 and anti-CD28 mAb (2 μg/ml) for 4 days. FIG. 1C depicts percentage of cells in peripheral blood from ten to twelve week-old Dkk-1^d/d mice (n=5) and their wildtype littermate controls (n=5) measured by HEMAVAT analyzer. WBC (White blood cells), NE (Neutrophils), LY (Lymphocytes), MO (Monocytes), EO (Eosinophils) were counted. FIG. 1D depicts cell number in peripheral blood from ten to twelve week-old Dkk-1^d/d mice (n=5) and their wildtype littermate controls (n=5) measured by HEMAVAT analyzer. WBC (White blood cells), NE (Neutrophils), LY (Lymphocytes), MO (Monocytes), EO (Eosinophils) were counted. FIG. 1F depicts airway resistance of Dkk-1^d/d and C57Bl/6 mice. […] Control group mice (n=3) were challenged with PBS. […] Dkk-1 inhibitor (10 mg/kg) was injected intraperitoneally at day −1, +1, +6, +8, +10, and +12. Student's t-test was used. n.s, not significant. Small horizontal lines indicate the mean (±s.e.m.). *, p<0.05
FIG. 11, comprising FIG. 11A through FIG. 11J, depicts results of experiments showing Dkk-1 facilitates leukocyte migration and regulates leukocyte-platelet aggregate formation in type 2 inflammation. FIG. 11A depicts flow cytometry analysis of CD45^+ cells in lung homogenates from nine-week old Dkk-1^d/d mice and wildtype littermate controls (n=5-6/group) 72 hours after challenge with 30 μg HDM allergen extract. FIG. 11B depicts analysis of percentages of CD45^+CD41^+ cells in peripheral blood from nine-week old Dkk-1^d/d mice and wildtype littermate controls collected at 4 hours and 24 hours after allergen challenge. FIG. 11C depicts flow cytometry analysis of CD45+ cells after Dkk-1 protein (300 ng/mouse) was injected intraperitoneally. FIG. 11D depicts a schematic diagram of Dkk-1 inhibitor treatment protocol for each group (n=5 for each group) in the HDM-induced asthma model. HDM allergen extract (10 μg) was challenged intranasally at the indicated time points. FIG. 11E depicts analysis of CD45^+ leukocytes numbers in BALF and Lung after Dkk-1 inhibitor treatment in the HDM-induced asthma model. FIG. 11F depicts analysis of neutrophils, eosinophils, and CD4 T cell numbers in the lungs after Dkk-1 inhibitor treatment in the HDM-induced asthma model. FIG. 11G depicts analysis of the number of CD4 T cells in mediastinal LNs. FIG. 11H depicts ELISA analysis of cytokines after 4 days of stimulation of med LN cells. FIG. 111 depicts scoring of H&E staining. FIG. 11J depicts scoring of PAS staining.
FIG. 13, comprising FIG. 13A through FIG. 13C, depicts results of experiments showing pharmacological antagonism of Dkk-1 in the HDM-induced asthma model. FIG. 13A depicts neutrophils and eosinophils in BALF. FIG. 13B depicts CD4 T cell percentages in med LNs measured by flow cytometry. FIG. 13C depicts representative images H&E and PAS staining. One-way ANOVA analysis with Dunnet's post-hoc test was performed. **, p<0.005, *, p<0.05.
FIG. 18 depicts results of experiments showing a Dkk-1 monoclonal antibody treatment protects […] mice from house dust mite (HDM)-induced asthma. Six-week-old female C57Bl/6 mice were treated with PBS(n=4), HDM(n=5), HDM and isotype antibody (n=5), and HDM plus Dkk-1 mAb (n=5). 10 μg of HDM was treated intranasally on day 0, 7, 8, 9, 10 and 11. Isotype antibody or Dkk-1 mAb was treated on day −1, +1, +6, +8, and +10. On day 14, mice were sacrificed and the lungs were harvested. fHCD45+ leukocytes were counted by flow cytometry. […]

`NCC1CCN(c2nccc(-c3ccc4ccccc4c3)n2)CC1` [WAY-262611, (1-(4-(naphthalen-2-yl)pyrimidin-2-yl)piperidin-4-yl)methanamine] was tested, and the “airway resistance increase by HDM” value (C57Bl/6 mice, Dkk-1 inhibitor 10 mg/kg intraperitoneally, FIG. 1F) was “notably decreased”, the “number of CD4 T cells in mediastinal lymph nodes” value (FIG. 11G) was “reduced” and the “Leukocyte infiltration including CD4 T cells, neutrophils, and eosinophils in BAL fluid and lung tissues” value (both ET (early treatment) and LT (late treatment) protocols, FIG. 11E, 11F, 13A) was “markedly decreased”. For the same compound, the “histopathological scores (H&E, PAS)” value (challenge stage or sensitization stage treatment, FIG. 11I, 11J, 13C) was “inhibition of type 2 inflammatory responses”, the “TH2 cytokine secretion from mediastinal lymph nodes” value (ex vivo stimulation of med LN cells 4 days, FIG. 11H) was “diminished” and the “percentage of CD4 T cells in the lymph nodes” value (mediastinal lymph nodes, FIG. 13) was “did not change”.
